Measured values: patent US20100204460A1, “NATURAL BRASSINOSTEROIDS FOR USE FOR TREATING HYPERPROLIFERATION, TREATING PROLIFERATIVE DISEASES AND REDUCING ADVERSE EFFECTS OF STEROID DYSFUNCTION IN MAMMALS, PHARMACEUTICAL COMPOSITION AND ITS USE” (priority 2007, published 2010)
Where “and” joins values, the source holds several entries; their conditions need not be identical. Equal entries are not always repeated. Where two headings read alike, the source gives them in different places.

Tests used:
[1] = tested on: MCF-7 cells; test: BrdU incorporation assay, MCF-7; assay type: cell-based
Description: To analyze if the inhibition in cell viability was due to decreased cell proliferation, we measured DNA synthesis in the presence of BRs. The effect of brassinosteroids 9 or 6 on cell proliferation and DNA replication of the cancer cells was measured by BrdU incorporation assay. This immunostaining was based on nuclear incorporation of bromodeoxyuridine (BrdU) into DNA in place of thymidine during the S-phase of cell cycle detected by anti-specific-BrdU antibody following membrane permeabilization as described previously (Gratzner, Science. 1982, 218, 474-475). […] The BrdU reagent (0.1 mM; Sigma, MO, USA) was added in culture medium with cells for 4 h in a CO2 incubator at 37° C. After incubation the cells were washed three times with PBS and fixed with cold acetone-methanol (1:1, v/v) for 10 min. The cells were denaturated by HCl (1:5; Lachema, Czech Republic) and incubated with anti-specific-BrdU antibody (diluted 1:100 in PBS; clone Bu20a, DakoCytomation, Denmark) for 60 min in the dark. The cells were then washed three times in PBS (10 mM, pH 7.4) and incubated with goat anti-mouse fluorescein isothiocyanate (FITC)-labeled secondary antibody (Sigma, MO, USA) for 60 min in the dark. The cells were then washed three times in PBS and incubated with DAPI (50 μg/mL; Sigma, MO, USA) for 10 min in the dark. The coverslips with cells were washed in deionized water and mounted on glass slides, using the hydrophilic medium Mowiol (Calbiochem, Calif., USA) in glycerol-PBS (1:3, v/v) for fluorescence. Cells were visualized using microscopy and those incorporating BrdU (S phase cells) were counted in at least 25 fields and compared with the total number of all cells.

[2] = tested on: LNCaP cells; test: TUNEL detection of apoptosis, LNCaP; assay type: cell-based; details: IC50 concentration
Description: TdT-Mediated dUTP nick end labeling (TUNEL) detection of apoptosis index. For detection of apoptotic cells, the TUNEL assay was used. […] After period of treatment, the cells were washed with PBS and fixed on the slides with cold acetone-methanol (1:1, v/v) for 10 min. Apoptosis-induced nuclear DNA fragmentation was detected by terminal deoxynucleotidyl transferase-mediated UTP nick end labeling (TUNEL) technique according to the producer protocol (In Situ Cell Death Detection Kit; Roche Diagnostics, Mannheim, Germany). The cells were then washed three times in PBS and stained with 4′-6-diamidino-2-phenylindole (DAPI; 50 μg/ml; Sigma, St. Louis, Mo., USA) for 10 min in the dark. The coverslips with cells were washed in deionized water and mounted on glass slides, using the hydrophilic medium Mowiol (Calbiochem, Fremont, Calif., USA) in glycerol-PBS (1:3, v/v) for fluorescence. Cells were visualized using fluorescence microscopy and compared with control cells. TUNEL staining achieved to confirm apoptosis in all cell lines.

[3] = tested on: cultured mouse hybridoma cells; details: cited from earlier work; for density of viable cells / growth: mouse hybridoma cells, concentrations of 10^−13 mol/L and 10^−12 mol/L
[4] = tested on: normal and cancer cell lines of different histopathological origin; test: Calcein AM cytotoxicity assay, summary statements over the cell line panel; assay type: cell-based; details: versus 28-homobrassinolide 2
Description: Stock solutions ([…]) were prepared by dissolving relevant quantity of substance in DMSO cultivation media (DMEM, RPMI 1640, F-12 medium), fetal bovine serum (FBS), L-glutamine, penicillin, and streptomycin were purchased from Sigma (MO, USA). 3-(4,5-Dimethylthiazol-2-yl)-2,5-diphenyltetrazolium bromide (MTT) was from Serva Electrophoresis (Heidelberg, Germany). Monoclonal mouse anti-bromodeoxyuridine (BrdU) intibody was obtained from DakoCytomation (Glostrup, Denmark). Calcein AM was obtained from PAA Laboratories GmbH (Pasching, Austria). The screening cell lines (T-lymphoblastic leukaemia cell line CEM; breast carcinoma cell line MCF-7 (estrogen-sensitive), breast adenocarcinoma cell line MDA-MB 468 (cell lines LNCaP (androgen-sensitive), prostate carcinoma cell line DU-145 ([…]), lung carcinoma cell line A-549, chronic myelogenous leukemia cell line K562, multiple myeloma cell line RPMI 8226, cervical carcinoma cell line HeLa, malignant human melanoma cell line G361, osteosarcoma cell line HOS, and normal human fibroblasts (BJ) were obtained from the American Type Culture Collection (Manassas, Va., USA). MCF-7 cells were cultured in F-12 medium (Sigma, MO, USA). LNCaP cells were cultured in RPMI 1640 medium (GIBCO, USA). All other cells were cultured in DMEM medium (Sigma, MO, USA). All used media were supplemented with 10% heat-inactivated fetal bovine serum, 2 mmol/L L-glutamine, 1% penicillin/streptomycin. The cell lines were maintained under standard cell culture conditions at 37° C. and 5% CO2 in a humid environment. Cells were subcultured twice or three times a week using the standard trypsinization procedure (Sigma, USA).
The cell suspension of approximate density of 1.25×10^5 cells/mL was redistributed into 96-well microtitre plates and after 12 h of stabilization the tested Brassinosteroids (BRs) were added in different concentrations. BRs were dissolved in DMSO. Control cultures were treated with DMSO alone. The final concentration of DMSO in the reaction mixture never exceeded 1%. Tested compounds in given concentrations were added at time zero in 20 μL aliquots to the microtiter plate wells. Usually, each test compound was evaluated at six 4-fold dilutions. In routine testing, the highest well concentration was 50 μmol, but it can be the matter of change dependent on the agent. Cultivation proceeds 96 h at 37° C., the cells were incubated with Calcein AM solution (Molecular Probes) for 1 h. Fluorescence (OD) of viable cells was quantified with Fluoroscan Ascent (Microsystems). The cell survival (IC50) was calculated using the following equation: IC50=(ODdrug exposed well/mean ODcontrol wells)×100%. Each compound was tested in triplicates and the test was repeated at least 3 times. The IC50 value, corresponding to drug concentration lethal to 50% of the tumor cells, was calculated from the obtained dose response curves.
We investigated effects of brassinosteroid on viability of normal and cancer cell lines of different histopathological origin. To evaluate the cytotoxic properties of several BRs and some related steroids, we used T-lymphoblastic leukaemia cell line CEM, breast carcinoma cell line MCF-7, lung carcinoma cell line A-549, chronic myeloid leukaemia cell line K562, multiple myeloma cell line RPMI 8226, cervical carcinoma cell line HeLa, malignant melanoma cell line G361, osteosarcoma cell line HOS, and normal human fibroblasts BJ. The cells were exposed to six 4-fold dilutions of each drug for 72 h to determinate number of surviving cells.

[5] = tested on: herpes simplex virus type 1 (HSV-1); details: cited from earlier work
[6] = tested on: arena viruses; details: cited from earlier work
[7] = tested on: measles virus (MV); details: cited from earlier work
[8] = treated at IC50 for 6 h, control 50 ± 3.6
[9] = treated at IC50 for 12 h, control 53 ± 3.5
[10] = treated at IC50 for 24 h, control 69 ± 4.5

Structure (SMILES) | percentage of proliferating BrdU positive cells [1, 8] [%] | percentage of proliferating BrdU positive cells [1, 9] [%] | percentage of proliferating BrdU positive cells [1, 10] [%] | percentage of TUNEL positive cells ([2]; 6 h, control 0.3 ± 0.6) [%] | percentage of TUNEL positive cells ([2]; 12 h, control 0.6 ± 0.6) [%] | percentage of TUNEL positive cells ([2]; 24 h, control 0.6 ± 0.6) | S-phase cells ([3]; cultured mouse hybridoma cells) | fraction of the cells in G0/G1 phase ([3]; cultured mouse hybridoma cells) | intracellular antibody level ([3]; cultured mouse hybridoma cells) | value of mitochondrial membrane potential ([3]; cultured mouse hybridoma cells) | density of viable cells / growth ([3]; listed as 6) | density of viable cells / growth ([3]; listed as 24-epibrassinolide) | strength of growth inhibitory response relative to 28-homobrassinolide 2 [4] | in vitro antiviral activity [5] | in vitro antiviral activity [6] | in vitro antiviral activity [7]
CC(C)[C@@H](C)[C@@H](O)[C@H](O)[C@@H](C)[C@H]1CC[C@H]2[C@@H]3COC(=O)[C@H]4C[C@H](O)[C@H](O)C[C@]4(C)[C@H]3CC[C@]12C [Brassinosteroid 6, 24-Epibrassinolide] | 42 ± 3.2 | 40 ± 7.1 | 36 ± 5.5 | 10.7 ± 4.0 | 12.2 ± 5.1 | 21.9% and 21.9 ± 3.0 % | decrease of S-phase cells | increase in the fraction of the cells in G0/G1 phase | decrease of intracellular antibody level | increase in the value of mitochondrial membrane potential | significant positive effect | significantly higher |  |  |  | 
CC[C@@H](C(C)C)[C@@H](O)[C@H](O)[C@@H](C)[C@H]1CC[C@H]2[C@@H]3CC(=O)[C@H]4C[C@H](O)[C@H](O)C[C@]4(C)[C@H]3CC[C@]12C [Brassinosteroid 9, 28-Homocastasterone] | 46 ± 2.5 | 31 ± 3.8 | 29±4.0 | 7.3 ± 2.1 | 15.7 ± 2.5 | 25.8% and 25.8 ± 2.5 % |  |  |  |  |  |  | about 3 times | in vitro antiviral activity | in vitro antiviral activity | in vitro antiviral activity
